Test system: 5-α reductase enzyme
Assay: Inhibition of 5-α reductase activity: conversion of [4-14C]testosterone to DHT by normal human dermal fibroblasts (NHDF)
Type: cell-based

SMILES	5-α reductase enzyme activity (reduced to) (75 μM test compound, 24 h pre-incubation then 24 h with radiolabelled testosterone, DHT quantified by TLC/phosphorImager) [%]	inhibition of 5-α reductase activity (in words) (dose-effect observed, FIG. 1)	testosterone metabolisation to DHT / 5-α reductase activity (in words) (positive control tested at 10 μM)
CCCCCCCCCCCC(=O)OCC(O)CO (stereo not drawn) [2,3-dihydroxypropyl dodecanoate]	66	inhibition of 5-α reductase activity is also observed	–
CC(C)(C)NC(=O)[C@H]1CC[C@H]2[C@@H]3CC[C@H]4NC(=O)C=C[C@]4(C)[C@H]3CC[C@]12C [finasteride, reference compound]	–	–	lowers testosterone metabolisation to DHT significantly

From patent US9101785B2, “Use of 2,3-dihydroxypropyl dodecanoate for treating seborrhoea” (PIERRE FABRE DERMO-COSMETIQUE, priority 2009, dated 2015)
